Assay results published in the NIST ThermoML archive (doi:10.1007/s10765-011-0989-8).

Details: 101 kPa, Liquid; for viscosity: Capillary tube (Ostwald / Ubbelohde) method; for mass density: Pycnometric method

CO [methanol]
Details	mass density [kg/m3]	viscosity [mPa·s]
293.15 K	791	0.595
298.15 K	786.4	0.552
303.15 K	781.8	0.514
308.15 K	777.2	0.478
313.15 K	771.8	0.449
323.15 K	762.3	0.394
333.15 K	752.4	0.349
